Assay results: patent US20110045101A1, “FUNGICIDAL SUBSTITUTED AZOLES” (E.I. Du Pont De Nemours and Company, priority 2009, published 2011)
Marks after values point to notes of the source that are not given here.

Tests used:
Format in all cases: in vivo
Settings in all cases: 100 = 100% disease control
Septoria nodorum = assay: Test F: wheat glume blotch on wheat seedlings, sprayed the day before inoculation, visual disease rating
From the text: (§1) General protocol for preparing test suspensions for Tests A-J: The test compounds were first dissolved in acetone in an amount equal to 3% of the final volume and then suspended at the desired concentration (in ppm) in acetone and purified water (50/50 mix) containing 250 ppm of the surfactant Trem® 014 (polyhydric alcohol esters). The resulting test suspensions were then used in tests A-J. Spraying a 200 ppm test suspension to the point of run-off on the test plants was the equivalent of a rate of 500 g/ha. […] The test suspension was sprayed to the point of run-off on wheat seedlings. […] A dash (-) indicates no test results. All results are for 200 ppm except where followed by “*”, which indicates 40 ppm.

Septoria tritici = assay: Test G: wheat leaf blotch on wheat seedlings, sprayed the day before inoculation, visual disease rating
From the text: General protocol for preparing test suspensions for Tests A-J: The test compounds were first dissolved in acetone in an amount equal to 3% of the final volume and then suspended at the desired concentration (in ppm) in acetone and purified water (50/50 mix) containing 250 ppm of the surfactant Trem® 014 (polyhydric alcohol esters). The resulting test suspensions were then used in tests A-J. Spraying a 200 ppm test suspension to the point of run-off on the test plants was the equivalent of a rate of 500 g/ha. […] The test suspension was sprayed to the point of run-off on wheat seedlings. The following day the seedlings were inoculated with a spore suspension of Septoria tritici (the causal agent of wheat leaf blotch) and incubated in saturated atmosphere at 24° C. for 48 h, and then moved to a growth chamber at 20° C. for 19 days, after which time visual disease ratings were made. […] A dash (-) indicates no test results. All results are for 200 ppm except where followed by “*”, which indicates 40 ppm.

[1] = system: Erysiphe graminis f. sp. tritici; assay: Test J: wheat powdery mildew on wheat seedlings, sprayed the day before inoculation, visual disease rating
From the text: as §1

Botrytis cinerea = assay: Test C: tomato Botrytis on tomato seedlings, sprayed the day before inoculation, visual disease rating
From the text: General protocol for preparing test suspensions for Tests A-J: The test compounds were first dissolved in acetone in an amount equal to 3% of the final volume and then suspended at the desired concentration (in ppm) in acetone and purified water (50/50 mix) containing 250 ppm of the surfactant Trem® 014 (polyhydric alcohol esters). The resulting test suspensions were then used in tests A-J. Spraying a 200 ppm test suspension to the point of run-off on the test plants was the equivalent of a rate of 500 g/ha. […] The test suspension was sprayed to the point of run-off on tomato seedlings. […] A dash (-) indicates no test results. All results are for 200 ppm except where followed by “*”, which indicates 40 ppm.

[2] = system: Puccinia recondita f. sp. tritici; assay: Test I: wheat leaf rust on wheat seedlings, sprayed the day before inoculation, visual disease rating
From the text: as §1

Alternaria solani = assay: Test D: tomato early blight, sprayed the day before inoculation, visual disease rating
From the text: as §1

[3] = 200 ppm, 0 = no control relative to controls
[4] = 40 ppm (marked *), 0 = no control

CSc1ccc(F)c(-c2c(Cl)nc(C)n2-c2ccc(Cl)cc2)c1F [compound 235]
Test F disease control rating (Septoria nodorum; 200 ppm, 0 = no control): 92%
Test G disease control rating (Septoria tritici; 200 ppm, 0 = no control): 99%
Test J disease control rating ([1]; 200 ppm, 0 = no control): 99%
Test C disease control rating (Botrytis cinerea; 200 ppm, 0 = no control): 99%
Test I disease control rating ([2]; 200 ppm, 0 = no control): 97%
Test D disease control rating (Alternaria solani; 200 ppm, 0 = no control): 99%

Cc1ccc(-n2c(Br)nc(Cl)c2-c2c(F)cccc2F)cc1F [compound 170]
Test F disease control rating (Septoria nodorum; 200 ppm, 0 = no control): 0%
Test G disease control rating (Septoria tritici; 200 ppm, 0 = no control): 95%
Test J disease control rating ([1]; 200 ppm, 0 = no control): 99%
Test C disease control rating (Botrytis cinerea; 200 ppm, 0 = no control): 97%
Test I disease control rating ([2]; 200 ppm, 0 = no control): 99%
Test D disease control rating (Alternaria solani; 200 ppm, 0 = no control): 98%

COc1cc(F)c(-c2c(Cl)nc(Cl)n2-c2cccc(Cl)c2)c(F)c1 [compound 453]
Test F disease control rating (Septoria nodorum; 40 ppm (marked *)): 90* %
Test G disease control rating (Septoria tritici; [3]): 93%
Test J disease control rating [1, 3]: 100%
Test C disease control rating (Botrytis cinerea; [3]): 99%
Test I disease control rating [2, 3]: 100%
Test D disease control rating (Alternaria solani; [3]): 100%

COc1cc(F)c(-c2c(Cl)nc(Cl)n2-c2ccc(F)cc2)c(F)c1 [compound 142]
Test F disease control rating (Septoria nodorum; [3]): 97%
Test G disease control rating (Septoria tritici; [3]): 94%
Test J disease control rating [1, 3]: 100%
Test C disease control rating (Botrytis cinerea; [3]): 99%
Test I disease control rating [2, 3]: 100%
Test D disease control rating (Alternaria solani; [3]): 100%

Fc1cccc(F)c1-c1c(Cl)nc(Br)n1Cc1ccc(Cl)cc1 [compound 103]
Test F disease control rating (Septoria nodorum; [3]): 90%
Test G disease control rating (Septoria tritici; [3]): 98%
Test J disease control rating [1, 3]: 99%
Test C disease control rating (Botrytis cinerea; [3]): 79%
Test I disease control rating [2, 3]: 100%
Test D disease control rating (Alternaria solani; [3]): 92%

Cc1ccc(-n2c(C)nc(Cl)c2-c2c(F)cccc2Cl)cc1 [compound 190]
Test F disease control rating (Septoria nodorum; 200 ppm, 0 = no control): 0%
Test G disease control rating (Septoria tritici; 200 ppm, 0 = no control): 93%
Test J disease control rating ([1]; 200 ppm, 0 = no control): 100%
Test C disease control rating (Botrytis cinerea; 200 ppm, 0 = no control): 97%
Test I disease control rating ([2]; 200 ppm, 0 = no control): 100%
Test D disease control rating (Alternaria solani; 200 ppm, 0 = no control): 100%

COc1cc(F)c(-c2c(Cl)nc(C)n2-c2ccc(F)cc2)c(F)c1 [compound 158]
Test F disease control rating (Septoria nodorum; 200 ppm, 0 = no control): 96%
Test G disease control rating (Septoria tritici; 200 ppm, 0 = no control): 97%
Test J disease control rating ([1]; 200 ppm, 0 = no control): 100%
Test C disease control rating (Botrytis cinerea; 200 ppm, 0 = no control): 99%
Test I disease control rating ([2]; 200 ppm, 0 = no control): 100%
Test D disease control rating (Alternaria solani; 200 ppm, 0 = no control): 100%

Cc1ccc(-n2c(Cl)nc(Cl)c2-c2c(F)cc(F)cc2F)cc1 [compound 154]
Test F disease control rating (Septoria nodorum; 200 ppm, 0 = no control): 0%
Test G disease control rating (Septoria tritici; 200 ppm, 0 = no control): 93%
Test J disease control rating ([1]; 200 ppm, 0 = no control): 99%
Test C disease control rating (Botrytis cinerea; 200 ppm, 0 = no control): 99%
Test I disease control rating ([2]; 200 ppm, 0 = no control): 86%
Test D disease control rating (Alternaria solani; 200 ppm, 0 = no control): 100%

Cc1nc(C)n(-c2ccc(Cl)cc2)c1-c1c(F)cccc1F [compound 151]
Test F disease control rating (Septoria nodorum; [4]): 69* %
Test G disease control rating (Septoria tritici; [4]): 99* %
Test J disease control rating [1, 4]: 96* %
Test C disease control rating (Botrytis cinerea; [4]): 97* %
Test I disease control rating [2, 4]: 89* %
Test D disease control rating (Alternaria solani; [4]): 100* %

COc1cc(F)c(-c2c(-c3ccc(Cl)c(F)c3)c(C)nn2C)c(F)c1 [compound 79]
Test F disease control rating (Septoria nodorum; [3]): 0%
Test G disease control rating (Septoria tritici; [3]): 95%
Test J disease control rating [1, 3]: 100%
Test C disease control rating (Botrytis cinerea; [3]): 53%
Test I disease control rating [2, 3]: 92%
Test D disease control rating (Alternaria solani; [3]): 97%

Fc1ccc(-n2c(Br)nc(Cl)c2-c2c(F)cccc2Cl)cc1 [compound 185]
Test F disease control rating (Septoria nodorum; 200 ppm, 0 = no control): 78%
Test G disease control rating (Septoria tritici; 200 ppm, 0 = no control): 94%
Test J disease control rating ([1]; 200 ppm, 0 = no control): 99%
Test C disease control rating (Botrytis cinerea; 200 ppm, 0 = no control): 99%
Test I disease control rating ([2]; 200 ppm, 0 = no control): 100%
Test D disease control rating (Alternaria solani; 200 ppm, 0 = no control): 100%

CCn1nc(Br)c(-c2c(F)cccc2F)c1-c1ccc(Cl)cc1 [compound 165]
Test F disease control rating (Septoria nodorum; 200 ppm, 0 = no control): 0%
Test G disease control rating (Septoria tritici; 200 ppm, 0 = no control): 93%
Test J disease control rating ([1]; 200 ppm, 0 = no control): 93%
Test C disease control rating (Botrytis cinerea; 200 ppm, 0 = no control): 0%
Test I disease control rating ([2]; 200 ppm, 0 = no control): 27%
Test D disease control rating (Alternaria solani; 200 ppm, 0 = no control): 0%

Cc1nc(Cl)c(-c2c(F)cccc2F)n1Cc1ccc(Cl)c(F)c1 [compound 120]
Test F disease control rating (Septoria nodorum; [3]): 0%
Test G disease control rating (Septoria tritici; [3]): 96%
Test J disease control rating [1, 3]: 92%
Test C disease control rating (Botrytis cinerea; [3]): 98%
Test I disease control rating [2, 3]: 90%
Test D disease control rating (Alternaria solani; [3]): 0%
